Laboratory results as given in patent publication US10370370B2, “Aminobenzisoxazole compounds as agonists of α7-nicotinic acetylcholine receptors” (FORUM PHARMACEUTICALS, INC., priority 2015, dated 2019).
Structures can show the parent of a compound that is named as a salt.

Legend:
[1] = biological target: human α7 nAChRs transiently expressed in Xenopus laevis oocytes (Homo sapiens (Human), UniProt P36544); assay: Oocyte Electrophysiology Screen (two-electrode voltage-clamp, HiQScreen); assay type: cell-based; conditions: test compound at 0.01 mM, response as percentage of that evoked by 0.2 mM ACh; hydrochloride
Experimental: Oocyte Electrophysiology Screen (% ACh @ 10 μM Oocyte)
The Oocyte Electrophysiology Screen studies were performed under contract by HiQScreen Geneva, Switzerland. All experiments were carried out at human α7 nAChRs transiently expressed in Xenopus laevis oocytes using the method of cDNA expression. Currents evoked by acetylcholine or other agonist ligands were recorded using the standard two-electrode voltage-clamp configuration (TEVC). X. laevis oocytes were prepared and injected using standard procedures. Briefly, ovaries were harvested from X. laevis females that were deeply anesthetized and pithed following the animal rights rule from the Geneva canton. A small piece of ovary was isolated for immediate preparation while the remaining part was placed at 4° C. in a sterile Barth solution containing in mM: NaCl 88, KCl 1, NaHCO3 2.4, HEPES 10, MgSO4.7H2O 0.82, Ca(NO3)2.4H2O 0.33, CaCl2.6H2O 0.41, at pH 7.4, and supplemented with 20 μg/mL of kanamycin, 100 unit/mL penicillin and 100 μg/mL streptomycin. On the second day following dissociation, oocytes were injected with 2 ng of cDNA per oocyte containing the gene encoding human α7 nicotinic acetylcholine receptor subunits using an automated injector (Hogg et al., 2008). All recordings were performed at 18° C. and cells were superfused with OR2 medium containing in mM: NaCl 82.5, KCl 2.5, HEPES 5, CaCl2.2H2O 2.5, pH 7.4. Cells were held at −80 mV. Data were filtered at 10 Hz, captured at 100 Hz and analyzed using proprietary data acquisition and analysis software running under Matlab (Mathworks Inc.).
Experimental Protocol and Analysis
After establishing a baseline transmembrane current, acetylcholine (ACh) was applied for 5 seconds at a concentration of 0.2 mM to establish a control ACh-evoked current response. Following a wash period of 90 s in OR2 medium (free of ACh), cells were then exposed for 30 s to the test compound applied at 0.01 mM. The same reference ACh test pulse was immediately given at the end of the compound exposure and again after 90 s of recovery in OR2 Medium (free of ACh or test compound). All data were determined in triplicate. The response evoked by the test compound was expressed as a percentage of that evoked by ACh: Response (% ACh)=100×(Itest/IACh) where Itest is the peak inward current measured during exposure to 0.01 mM of test compound and IACh is the peak inward current measured in the presence of ACh.
Results are provided in Table 2 (reported as % ACh @ 10 μM Oocyte).

[2] = biological target: human 5-HT3 serotonin receptors (Homo sapiens (Human), UniProt P46098); assay: [3H]BRL 43694 competition binding (Cerep); conditions: CHO cell membranes expressing human 5-HT3 receptors
[3] = biological target: recombinantly expressed human α7-nAChR (Homo sapiens (Human), UniProt P36544); conditions: [125I] α-BTX radioligand, read-out: Ki (lit); cited from earlier work
human α7 nAChR = human α7 nAChR (Homo sapiens (Human), UniProt P36544); assay type: binding; conditions: above described assay provided by Cerep
human α7 nAChR, sequence (P36544 23-502 limits assumed): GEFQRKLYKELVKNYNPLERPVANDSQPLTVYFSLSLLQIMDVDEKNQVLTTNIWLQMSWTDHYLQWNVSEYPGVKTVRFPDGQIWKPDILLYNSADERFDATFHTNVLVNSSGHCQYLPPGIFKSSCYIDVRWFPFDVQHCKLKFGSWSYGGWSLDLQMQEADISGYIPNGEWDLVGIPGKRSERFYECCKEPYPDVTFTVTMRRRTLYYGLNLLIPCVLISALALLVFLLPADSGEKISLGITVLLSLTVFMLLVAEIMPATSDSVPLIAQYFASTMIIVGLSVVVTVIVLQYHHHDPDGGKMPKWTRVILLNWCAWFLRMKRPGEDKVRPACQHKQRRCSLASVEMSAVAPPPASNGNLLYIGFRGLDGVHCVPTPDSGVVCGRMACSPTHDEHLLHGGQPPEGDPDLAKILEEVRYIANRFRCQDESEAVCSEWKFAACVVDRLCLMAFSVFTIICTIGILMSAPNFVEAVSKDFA

human α7 nAChRs transiently expressed in Xenopus laevis oocytes, sequence (P36544 23-502 limits assumed): as above
recombinantly expressed human α7-nAChR, sequence (P36544 23-502 limits assumed): as above
human 5-HT3 serotonin receptors, sequence (P46098 24-478): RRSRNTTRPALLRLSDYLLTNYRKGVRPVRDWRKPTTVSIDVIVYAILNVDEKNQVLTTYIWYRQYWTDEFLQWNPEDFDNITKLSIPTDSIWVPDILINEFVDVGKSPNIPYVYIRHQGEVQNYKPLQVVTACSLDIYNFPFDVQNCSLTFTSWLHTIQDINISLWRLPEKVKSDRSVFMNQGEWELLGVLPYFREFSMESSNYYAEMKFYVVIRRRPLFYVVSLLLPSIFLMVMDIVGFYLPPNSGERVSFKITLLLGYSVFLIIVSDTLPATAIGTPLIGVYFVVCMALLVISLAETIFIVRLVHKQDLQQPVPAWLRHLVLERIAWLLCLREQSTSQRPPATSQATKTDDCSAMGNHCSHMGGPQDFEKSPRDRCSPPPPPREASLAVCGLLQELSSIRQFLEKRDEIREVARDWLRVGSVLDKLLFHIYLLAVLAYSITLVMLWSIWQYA

Structure (SMILES)	% ACh @ 10 μM Oocyte [1] [% ACh]	further results
FC(F)(F)c1ccc2c(NC3CN4CCC3CC4)noc2c1 (single isomer, unassigned; enantiomer2) [Compound 8-P2, N-(quinuclidin-3-yl)-6-(trifluoromethyl)benzo[d]isoxazol-3-amine-enantiomer2 hydrochloride]	221	
c1ccc2c(NC3CN4CCC3CC4)noc2c1 (single isomer, unassigned; enantiomer1) [Compound 1-P1]	483	
Clc1cccc2c(NC3CN4CCC3CC4)noc12 (single isomer, unassigned; enantiomer1) [Compound 2-P1, 7-chloro-N-(quinuclidin-3-yl)benzo[d]isoxazol-3-amine-enantiomer1 hydrochloride]	418	
Clc1ccc2onc(NC3CN4CCC3CC4)c2c1 (single isomer, unassigned; enantiomer1) [Compound 4-P1, 5-chloro-N-(quinuclidin-3-yl)benzo[d]isoxazol-3-amine-enantiomer1 hydrochloride]	326	
Clc1cccc2c(NC3CN4CCC3CC4)noc12 (single isomer, unassigned; enantiomer2) [Compound 2-P2, 7-chloro-N-(quinuclidin-3-yl)benzo[d]isoxazol-3-amine-enantiomer2 hydrochloride]	363	
Cc1c(Cl)ccc2c(N[C@H]3CN4CCC3CC4)noc12 [Compound (R)-23, (R)-6-chloro-7-methyl-N-(quinuclidin-3-yl)benzo[d]isoxazol-3-amine hydrochloride]		Ki [2]: 0.19 µM
Cc1ccc2c(NC3CN4CCC3CC4)noc2c1 (single isomer, unassigned; enantiomer2) [Compound 5-P2, 6-methyl-N-(quinuclidin-3-yl)benzo[d]isoxazol-3-amine-enantiomer2 hydrochloride]	645	
c1cc2c(NC3CN4CCC3CC4)noc2cc1C1CC1 (single isomer, unassigned; enantiomer1) [Compound 6-P1, 6-cyclopropyl-N-(quinuclidin-3-yl)benzo[d]isoxazol-3-amine-enantiomer1 hydrochloride]	157	
c1cc2c(NC3CN4CCC3CC4)noc2cc1C1CC1 (single isomer, unassigned; enantiomer2) [Compound 6-P2, 6-cyclopropyl-N-(quinuclidin-3-yl)benzo[d]isoxazol-3-amine-enantiomer2 hydrochloride]	355	
COc1ccc2c(NC3CN4CCC3CC4)noc2c1 (single isomer, unassigned; enantiomer2) [Compound 7-P2, 6-methoxy-N-(quinuclidin-3-yl)benzo[d]isoxazol-3-amine-enantiomer2 hydrochloride]	427	
Clc1ccc2c(NC3CN4CCC3CC4)noc2c1 (single isomer, unassigned; enantiomer2) [Compound 3-P2, 6-chloro-N-(quinuclidin-3-yl)benzo[d]isoxazol-3-amine-enantiomer2 hydrochloride]	379	
COc1ccc2c(NC3CN4CCC3CC4)noc2c1 (single isomer, unassigned; enantiomer1) [Compound 7-P1, 6-methoxy-N-(quinuclidin-3-yl)benzo[d]isoxazol-3-amine-enantiomer1 hydrochloride]	326	
c1ccc2c(NC3CN4CCC3CC4)noc2c1 (single isomer, unassigned; enantiomer2) [Compound 1-P2, N-(quinuclidin-3-yl)benzo[d]isoxazol-3-amine-enantiomer2 hydrochloride]	206	
Cc1ccc(-c2ccc(OC3CN4CCC3CC4)cn2)cc1 (stereo not shown) [AQW051]		Ki [3]: 0.028 µM; Ki (human α7 nAChR): 0.255 µM
FC(F)(F)c1ccc2c(NC3CN4CCC3CC4)noc2c1 (single isomer, unassigned; enantiomer1) [Compound 8-P1, N-(quinuclidin-3-yl)-6-(trifluoromethyl)benzo[d]isoxazol-3-amine-enantiomer1 hydrochloride]	26	
Clc1ccc2onc(NC3CN4CCC3CC4)c2c1 (single isomer, unassigned; enantiomer2) [Compound 4-P2, 5-chloro-N-(quinuclidin-3-yl)benzo[d]isoxazol-3-amine-enantiomer2 hydrochloride]	17	
Clc1ccc2c(NC3CN4CCC3CC4)noc2c1 (single isomer, unassigned; enantiomer1) [Compound 3-P1, 6-chloro-N-(quinuclidin-3-yl)benzo[d]isoxazol-3-amine-enantiomer1 hydrochloride]	465	
Cc1ccc2c(NC3CN4CCC3CC4)noc2c1 (single isomer, unassigned; enantiomer1) [Compound 5-P1, 6-methyl-N-(quinuclidin-3-yl)benzo[d]isoxazol-3-amine-enantiomer1 hydrochloride]	548	
